From PMC10178848, “Modulating fast skeletal muscle contraction protects skeletal muscle in animal models of Duchenne muscular dystrophy” (The Journal of Clinical Investigation, 2023)
pIC50: −log10 of the molar value.

Legend:
[1] = target: T1, MAPKAPK2 (Homo sapiens, UniProt P49137); experiment: KINOMEscan scanEDGE; format: binding; settings: 20 uM
T1 construct: purchased Eurofins DiscoverX (KINOMEscan; SAFETYscan E/IC50 ELECT)

[2] = target: T2, porcine ventricular cardiac S1 (Sus scrofa, UniProt P79293); experiment: Actin-activated myosin S1 ATPase, cardiac; format: biochemical
T2 construct: tissue Pel-freez; host or cells: frozen porcine ventricular muscle; myosin extracted and digested with alpha-chymotrypsin
Procedure: Smooth muscle chicken gizzard S1 was purchased from Cytoskeleton Inc. Other myosin S1 was prepared via published protocols ([21]). Briefly, fresh rabbit psoas and frozen porcine ventricular muscle (Pel-freez) were extracted in 0.3 M KCl, 0.15 M KH2PO4, 1 mM EGTA, 1 mM ATP, 1 mM DTT, pH 6.5, at 4°C. Full-length myosin was purified from each extract via low-ionic precipitations with final precipitation into PM12 buffer (12 mM PIPES, pH 7.0, 2 mM MgCl2). Purified myosin was resuspended in PIPES/EDTA buffer (20 mM PIPES, pH 6.8, 10 mM EDTA, 1 mM DTT) and reacted with 0.2 mg/mL α-chymotrypsin for 30 minutes at room temperature. Proteolysis was quenched with PMSF (final concentration 100 μM), and the reaction was centrifuged for 45 minutes at 230,000g. S1 fragment in the supernatant was dialyzed into PM12 with 0.02% sodium azide and clarified by centrifugation. Sucrose was added to 10% w/v and flash-frozen in liquid N2 and stored at –80°C. […]
A lactate dehydrogenase/pyruvate kinase enzyme-coupled system ([62]) was used to monitor ATP hydrolysis rates in various muscle preparations. […] A multidrop cassette (Thermo Fisher Scientific) dispensed 10 μL of the coupled enzyme system, calcium, and myofibrils to 10 μL ATP, NADH and PEP to initiate the reaction prior to reading on a plate reader (Envision, Perkin Elmer) for 10 minutes per plate at room temperature. […]

[3] = target: T3, bovine cardiac myofibrils (Bos taurus, UniProt Q9BE39); experiment: Myofibril ATPase, bovine cardiac; format: biochemical; settings: bovine cardiac ventricle; at pCa50
T3 construct: from tissue; host or cells: bovine cardiac ventricle
Procedure: Myofibrils were prepared from various animals and tissues: rabbit psoas muscle and porcine cardiac muscle were purchased from Pel-Freez Biologicals. Human bicep and soleus muscle were purchased from BioIVT, and neonatal rat muscle was obtained in house. All myofibrils were prepared using published methods ([21]).
A lactate dehydrogenase/pyruvate kinase enzyme-coupled system ([62]) was used to monitor ATP hydrolysis rates in various muscle preparations. Rabbit psoas myofibrils were used for high-throughput screening at pCa 6.25 at 0.25 mg/mL. A multidrop cassette (Thermo Fisher Scientific) dispensed 10 μL of the coupled enzyme system, calcium, and myofibrils to 10 μL ATP, NADH and PEP to initiate the reaction prior to reading on a plate reader (Envision, Perkin Elmer) for 10 minutes per plate at room temperature. Hits were reconfirmed, and secondary assays were used to evaluate selectivity, including bovine cardiac myofibrils (pCa 5.86) and enzyme coupled hits with a hexokinase screen (Sigma-Aldrich).

[4] = target: T4, PLK4 (Homo sapiens, UniProt O00444); experiment: KINOMEscan scanEDGE; format: binding; settings: 20 uM
T4 construct: purchased Eurofins DiscoverX (KINOMEscan; SAFETYscan E/IC50 ELECT)
T4 sequence (O00444 whole entry): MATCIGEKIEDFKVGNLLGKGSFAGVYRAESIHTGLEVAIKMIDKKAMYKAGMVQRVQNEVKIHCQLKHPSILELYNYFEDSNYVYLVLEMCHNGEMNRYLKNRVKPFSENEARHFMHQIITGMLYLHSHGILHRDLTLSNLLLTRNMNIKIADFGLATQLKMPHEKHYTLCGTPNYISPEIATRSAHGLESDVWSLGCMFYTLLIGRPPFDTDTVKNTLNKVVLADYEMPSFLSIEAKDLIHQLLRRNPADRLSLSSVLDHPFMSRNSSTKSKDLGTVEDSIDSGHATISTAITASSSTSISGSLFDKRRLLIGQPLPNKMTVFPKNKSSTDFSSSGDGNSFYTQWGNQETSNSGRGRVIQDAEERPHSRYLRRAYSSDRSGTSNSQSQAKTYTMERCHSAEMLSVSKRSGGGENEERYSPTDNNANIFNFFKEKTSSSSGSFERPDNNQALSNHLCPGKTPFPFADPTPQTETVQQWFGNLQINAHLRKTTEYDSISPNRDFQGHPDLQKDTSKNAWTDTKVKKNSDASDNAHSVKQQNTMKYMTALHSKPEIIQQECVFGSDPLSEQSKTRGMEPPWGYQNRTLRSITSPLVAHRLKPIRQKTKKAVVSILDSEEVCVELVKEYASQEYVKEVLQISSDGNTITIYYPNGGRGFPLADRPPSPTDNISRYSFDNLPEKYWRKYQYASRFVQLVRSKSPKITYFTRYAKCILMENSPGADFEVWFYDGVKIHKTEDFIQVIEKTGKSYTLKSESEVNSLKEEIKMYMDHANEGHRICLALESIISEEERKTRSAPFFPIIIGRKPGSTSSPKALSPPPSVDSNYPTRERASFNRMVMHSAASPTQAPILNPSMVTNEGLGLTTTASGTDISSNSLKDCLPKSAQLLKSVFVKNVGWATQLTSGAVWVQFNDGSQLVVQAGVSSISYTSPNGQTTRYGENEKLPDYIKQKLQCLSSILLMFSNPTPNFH

[5] = target: T5, slow bovine masseter skeletal myofibrils (Bos taurus, UniProt Q9BE39); experiment: Myofibril ATPase, bovine masseter; format: biochemical; settings: 100% type I, at pCa50
T5 construct: from tissue; host or cells: bovine masseter muscle
T5 sequence (Q9BE39 whole entry): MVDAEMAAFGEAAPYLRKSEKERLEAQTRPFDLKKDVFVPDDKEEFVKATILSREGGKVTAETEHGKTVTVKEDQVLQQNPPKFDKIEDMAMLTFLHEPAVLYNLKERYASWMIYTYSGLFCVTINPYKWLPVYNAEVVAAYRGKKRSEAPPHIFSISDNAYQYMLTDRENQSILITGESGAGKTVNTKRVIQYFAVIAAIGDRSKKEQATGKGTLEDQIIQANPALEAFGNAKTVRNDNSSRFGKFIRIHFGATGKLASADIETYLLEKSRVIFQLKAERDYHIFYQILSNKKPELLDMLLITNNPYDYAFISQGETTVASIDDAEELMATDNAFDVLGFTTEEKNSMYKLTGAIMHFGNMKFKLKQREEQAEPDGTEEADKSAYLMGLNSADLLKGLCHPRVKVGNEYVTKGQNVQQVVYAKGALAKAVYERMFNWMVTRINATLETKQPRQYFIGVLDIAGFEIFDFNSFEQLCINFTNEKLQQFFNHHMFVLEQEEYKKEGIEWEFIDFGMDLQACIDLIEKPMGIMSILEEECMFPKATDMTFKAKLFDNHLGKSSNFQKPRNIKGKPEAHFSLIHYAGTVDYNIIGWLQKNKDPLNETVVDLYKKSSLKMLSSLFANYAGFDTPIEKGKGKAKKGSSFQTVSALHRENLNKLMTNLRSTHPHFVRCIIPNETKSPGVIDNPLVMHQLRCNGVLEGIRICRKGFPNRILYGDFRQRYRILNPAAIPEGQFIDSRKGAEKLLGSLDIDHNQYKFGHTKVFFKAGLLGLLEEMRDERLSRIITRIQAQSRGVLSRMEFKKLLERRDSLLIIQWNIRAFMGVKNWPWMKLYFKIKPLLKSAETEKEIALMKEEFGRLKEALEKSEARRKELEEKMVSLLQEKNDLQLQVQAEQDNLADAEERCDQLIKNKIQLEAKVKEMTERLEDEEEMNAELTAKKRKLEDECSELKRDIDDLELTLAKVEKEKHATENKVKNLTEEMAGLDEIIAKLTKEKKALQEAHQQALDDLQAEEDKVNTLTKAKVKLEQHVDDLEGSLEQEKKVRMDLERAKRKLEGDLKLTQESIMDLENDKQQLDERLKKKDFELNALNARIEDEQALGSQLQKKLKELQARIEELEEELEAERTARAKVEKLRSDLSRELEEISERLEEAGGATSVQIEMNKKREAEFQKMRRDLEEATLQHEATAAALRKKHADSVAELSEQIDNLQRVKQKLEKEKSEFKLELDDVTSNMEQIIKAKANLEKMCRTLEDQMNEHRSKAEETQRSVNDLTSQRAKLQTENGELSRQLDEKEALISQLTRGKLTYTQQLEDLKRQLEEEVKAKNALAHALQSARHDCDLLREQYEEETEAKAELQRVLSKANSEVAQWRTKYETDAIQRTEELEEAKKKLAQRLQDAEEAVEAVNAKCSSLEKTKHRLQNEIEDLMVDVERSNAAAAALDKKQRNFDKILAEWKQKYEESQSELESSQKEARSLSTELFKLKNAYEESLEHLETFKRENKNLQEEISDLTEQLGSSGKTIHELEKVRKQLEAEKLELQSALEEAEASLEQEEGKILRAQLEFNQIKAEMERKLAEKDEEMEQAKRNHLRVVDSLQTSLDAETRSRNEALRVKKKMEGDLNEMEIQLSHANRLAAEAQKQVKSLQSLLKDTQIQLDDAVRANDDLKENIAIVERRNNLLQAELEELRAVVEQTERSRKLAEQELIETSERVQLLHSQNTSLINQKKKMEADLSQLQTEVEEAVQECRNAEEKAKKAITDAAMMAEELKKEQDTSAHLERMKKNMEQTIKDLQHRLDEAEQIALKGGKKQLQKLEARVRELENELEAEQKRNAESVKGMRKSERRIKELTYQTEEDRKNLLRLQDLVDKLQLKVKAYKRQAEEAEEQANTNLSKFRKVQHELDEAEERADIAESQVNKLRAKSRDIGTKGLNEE
T5 sequence (P85100 whole entry partner): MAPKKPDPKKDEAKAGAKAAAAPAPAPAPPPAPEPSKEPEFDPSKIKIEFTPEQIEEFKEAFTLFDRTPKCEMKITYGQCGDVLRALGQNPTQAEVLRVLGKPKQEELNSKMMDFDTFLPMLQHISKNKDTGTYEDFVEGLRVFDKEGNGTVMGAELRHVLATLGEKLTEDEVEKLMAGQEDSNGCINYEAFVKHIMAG
T5 sequence (Q3SZE5 whole entry partner): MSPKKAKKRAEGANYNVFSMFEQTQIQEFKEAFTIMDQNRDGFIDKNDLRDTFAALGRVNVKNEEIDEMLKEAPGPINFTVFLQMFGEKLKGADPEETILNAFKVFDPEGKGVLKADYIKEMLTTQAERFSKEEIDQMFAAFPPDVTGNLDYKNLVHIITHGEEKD

[6] = target: T6, FLT3 (Homo sapiens, UniProt P36888); experiment: KINOMEscan scanEDGE; format: binding; settings: 20 uM
T6 construct: purchased Eurofins DiscoverX (KINOMEscan; SAFETYscan E/IC50 ELECT)

[7] = target: T7, SRPK3 (Homo sapiens, UniProt Q9UPE1); experiment: KINOMEscan scanEDGE; format: binding; settings: 20 uM
T7 construct: purchased Eurofins DiscoverX (KINOMEscan; SAFETYscan E/IC50 ELECT)

[8] = target: T8, AURKA (Homo sapiens, UniProt O14965); experiment: KINOMEscan scanEDGE; format: binding; settings: 20 uM
T8 construct: purchased Eurofins DiscoverX (KINOMEscan; SAFETYscan E/IC50 ELECT)
T8 sequence (O14965 whole entry): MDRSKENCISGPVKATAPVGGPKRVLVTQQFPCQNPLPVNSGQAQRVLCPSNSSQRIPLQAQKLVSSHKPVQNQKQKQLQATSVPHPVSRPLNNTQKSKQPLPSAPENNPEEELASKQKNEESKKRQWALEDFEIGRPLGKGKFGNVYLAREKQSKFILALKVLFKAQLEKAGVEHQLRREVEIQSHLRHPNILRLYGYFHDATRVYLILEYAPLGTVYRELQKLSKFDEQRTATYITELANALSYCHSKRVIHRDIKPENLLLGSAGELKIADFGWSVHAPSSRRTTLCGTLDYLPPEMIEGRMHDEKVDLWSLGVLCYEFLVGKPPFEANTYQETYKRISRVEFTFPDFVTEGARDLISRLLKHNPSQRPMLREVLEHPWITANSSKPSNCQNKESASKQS

[9] = target: T9, CDK2 (Homo sapiens, UniProt P24941); experiment: KINOMEscan scanEDGE; format: binding; settings: 20 uM
T9 construct: purchased Eurofins DiscoverX (KINOMEscan; SAFETYscan E/IC50 ELECT)

[10] = target: T10, MET (Homo sapiens, UniProt P08581); experiment: KINOMEscan scanEDGE; format: binding; settings: 20 uM
T10 construct: purchased Eurofins DiscoverX (KINOMEscan; SAFETYscan E/IC50 ELECT)
T10 sequence (P08581 25-1390): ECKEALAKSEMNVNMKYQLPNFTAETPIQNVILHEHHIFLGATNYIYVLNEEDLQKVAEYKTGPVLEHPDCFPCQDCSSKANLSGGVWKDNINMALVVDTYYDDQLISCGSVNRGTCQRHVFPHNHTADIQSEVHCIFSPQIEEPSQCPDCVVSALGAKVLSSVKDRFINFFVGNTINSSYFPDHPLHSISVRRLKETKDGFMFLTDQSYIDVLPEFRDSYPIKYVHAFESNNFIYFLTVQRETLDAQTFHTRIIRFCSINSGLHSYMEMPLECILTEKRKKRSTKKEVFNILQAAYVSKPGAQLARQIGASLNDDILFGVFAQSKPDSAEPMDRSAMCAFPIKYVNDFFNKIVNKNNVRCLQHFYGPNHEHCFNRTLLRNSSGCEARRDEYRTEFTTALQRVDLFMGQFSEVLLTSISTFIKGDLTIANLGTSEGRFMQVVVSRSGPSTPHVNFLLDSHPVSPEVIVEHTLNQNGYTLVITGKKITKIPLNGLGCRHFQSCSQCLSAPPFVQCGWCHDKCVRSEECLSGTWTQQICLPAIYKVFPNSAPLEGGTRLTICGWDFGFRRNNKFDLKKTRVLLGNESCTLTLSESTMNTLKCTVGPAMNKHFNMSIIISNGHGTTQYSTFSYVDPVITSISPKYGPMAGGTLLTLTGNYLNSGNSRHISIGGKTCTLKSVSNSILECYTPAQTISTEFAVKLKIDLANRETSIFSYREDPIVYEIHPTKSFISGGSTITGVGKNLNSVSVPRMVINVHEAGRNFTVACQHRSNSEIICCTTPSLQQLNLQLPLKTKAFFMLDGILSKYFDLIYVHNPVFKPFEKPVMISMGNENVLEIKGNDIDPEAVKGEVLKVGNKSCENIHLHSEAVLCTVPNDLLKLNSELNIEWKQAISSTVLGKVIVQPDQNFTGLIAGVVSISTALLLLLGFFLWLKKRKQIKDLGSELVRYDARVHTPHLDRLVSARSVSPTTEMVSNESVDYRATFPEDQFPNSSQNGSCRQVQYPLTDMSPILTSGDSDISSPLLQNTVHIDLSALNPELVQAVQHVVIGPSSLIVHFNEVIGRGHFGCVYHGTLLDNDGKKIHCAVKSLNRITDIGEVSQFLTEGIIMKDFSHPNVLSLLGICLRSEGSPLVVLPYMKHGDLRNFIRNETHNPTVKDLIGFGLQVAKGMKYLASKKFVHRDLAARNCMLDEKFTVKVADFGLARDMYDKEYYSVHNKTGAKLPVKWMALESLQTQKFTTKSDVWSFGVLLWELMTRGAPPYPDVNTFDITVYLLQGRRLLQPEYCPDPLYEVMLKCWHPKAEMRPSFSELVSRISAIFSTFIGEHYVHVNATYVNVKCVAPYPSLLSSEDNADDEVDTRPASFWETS

[11] = test system: DBA/2J mdx mouse; experiment: 12-week dosing in DBA/2J mdx mice (fibrosis); format: in vivo; settings: 12 weeks, chow
Source text: C57BL/6 (stock no. 000664), C57BL/10J (stock no. 000665, control for mdx experiments), C57BL/10ScSn-Dmd^mdx/J (mdx, stock no. 001801), and D2.B10 (DBA/2-congenic) Dmd^mdx (DBA/2J mdx, stock no. 013141) mice were from The Jackson Laboratory. Sprague-Dawley rats were purchased from Charles River Laboratories. For ex vivo experiments, mice were 10–16 weeks old. For in situ experiments, mice were 8–14 weeks of age. For in vivo chronic dosing studies, mdx and DBA/2J mdx were 4–5 weeks of age at study start. Dosing was via a 10 mL/kg suspension (1% methyl cellulose, 0.1% Tween 80 in water). For studies in 14-day-old preweaning mice, PO dosing was via syrup suspension (3 mg/kg/d). […]
For sterile muscle injury, mice were anesthetized with isoflurane and 50 μL cardiotoxin (12 × 10^–6 M, 217503, Millipore) injected in the TA muscle. […] 8 μm cryosections were cut and stained with H&E. For each analysis, more than 10 slides (per condition/group) containing 6 muscle sections/sample were used, and myofibers in the injured area were counted and measured with a Mirax digital scanner and HALO software ([68]). […] Image analysis was performed using ImarisX64 software (Bitplane AG), and fiber sizing was calculated using minimal Feret’s diameter ([69]). […] Fiber type, size, and central nucleation were quantified with analysis via SMASH ([70]) and ImageJ (NIH). […]

[12] = target: T11, TRKA (Homo sapiens, UniProt P04629); experiment: KINOMEscan scanEDGE; format: binding; settings: 20 uM
T11 construct: purchased Eurofins DiscoverX (KINOMEscan; SAFETYscan E/IC50 ELECT)

O=c1ccc(-c2cnc(OCC(F)(F)F)nc2)nn1Cc1cncc(F)c1 [EDG-5506]
binding, % of control [1]: 100 % of control | pIC50 [2]: < 4.00 | pIC50 [3]: < 4.00 | binding, % of control [4]: 90 % of control | pIC50 [5]: < 4.00 | binding, % of control [6]: 89 % of control | binding, % of control [7]: 95 % of control | binding, % of control [8]: 99 % of control | binding, % of control [9]: 100 % of control | binding, % of control [10]: 55 % of control | fibrosis in TA and diaphragm muscles [11]: reduced fibrosis | left ventricular fibrosis [11]: trend toward lower fibrosis | binding, % of control [12]: 98 % of control
